Reference: PubChem BioAssay (NCI)
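Test compounds were applied to cells in 96-well plates for 48 hours at 5 doses. Abbreviation: GI50, concentration required for 50% inhibition of growth. Definition used: TGI = concentration required for complete inhibition of growth.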

Columns and labels:
Assay in all cases: DTP human tumour cell line panel, 48 h
NCI-H522 lung = test system: NCI-H522 lung
MALME-3M melanoma = test system: MALME-3M melanoma
HCC-2998 colon = test system: HCC-2998 colon
T-47D breast = test system: T-47D breast
NCI-H460 lung = test system: NCI-H460 lung
SNB-75 CNS = test system: SNB-75 CNS
OVCAR-8 ovarian = test system: OVCAR-8 ovarian
RXF 393 renal = test system: RXF 393 renal
HCT-116 colon = test system: HCT-116 colon
OVCAR-3 ovarian = test system: OVCAR-3 ovarian

O=S(=O)(c1ccc(-c2nnc(-c3ccc(F)cc3)o2)cc1)c1ccc(-c2nnc(-c3ccc(F)cc3)o2)cc1
TGI (NCI-H522 lung): > 100 µM | TGI (MALME-3M melanoma): > 100 µM | TGI (HCC-2998 colon): > 100 µM | TGI (T-47D breast): > 100 µM | TGI (NCI-H460 lung): > 100 µM | TGI (SNB-75 CNS): 26 µM | TGI (OVCAR-8 ovarian): > 100 µM | TGI (RXF 393 renal): 77.7 µM | TGI (HCT-116 colon): > 100 µM | TGI (OVCAR-3 ovarian): > 100 µM

COc1ccc(C(Cc2ccccc2)C2NC(=S)NC2=O)cc1 (stereo unspecified)
TGI (NCI-H522 lung): > 25 µM | TGI (MALME-3M melanoma): > 25 µM | TGI (T-47D breast): > 25 µM | TGI (NCI-H460 lung): > 25 µM | TGI (SNB-75 CNS): > 25 µM | TGI (OVCAR-8 ovarian): > 25 µM | TGI (RXF 393 renal): > 25 µM | TGI (HCT-116 colon): > 25 µM | TGI (OVCAR-3 ovarian): > 25 µM

O=C1CC(C(CC(=O)c2ccccc2)c2ccccc2)C(=O)c2ccccc2N1 (stereo unspecified)
TGI (MALME-3M melanoma): > 100 µM | TGI (HCC-2998 colon): > 100 µM | TGI (T-47D breast): 64.4 µM | TGI (NCI-H460 lung): > 100 µM | TGI (SNB-75 CNS): > 100 µM | TGI (OVCAR-8 ovarian): > 100 µM | TGI (HCT-116 colon): > 100 µM | TGI (OVCAR-3 ovarian): > 100 µM

Cc1ccnc2nc(N)ccc12
TGI (NCI-H522 lung): > 100 µM | TGI (MALME-3M melanoma): > 100 µM | TGI (T-47D breast): > 100 µM | TGI (NCI-H460 lung): > 100 µM | TGI (SNB-75 CNS): > 100 µM | TGI (OVCAR-8 ovarian): > 100 µM | TGI (RXF 393 renal): > 100 µM | TGI (HCT-116 colon): > 100 µM

CC(C)(O)C1CC[C@]2(C)[C@H]3CC[C@@H]4[C@@]5(C)CCCC(C)(C)[C@@H]5CC[C@@]4(C)[C@]3(C)CC[C@@H]12 (stereo partly specified)
TGI (NCI-H522 lung): > 100 µM | TGI (MALME-3M melanoma): > 100 µM | TGI (HCC-2998 colon): > 100 µM | TGI (T-47D breast): > 100 µM | TGI (NCI-H460 lung): > 100 µM | TGI (OVCAR-8 ovarian): > 100 µM | TGI (RXF 393 renal): > 100 µM | TGI (HCT-116 colon): > 100 µM | TGI (OVCAR-3 ovarian): > 100 µM

Nc1cccc(S(=O)(=O)Nc2nnc(S(N)(=O)=O)s2)c1
TGI (NCI-H522 lung): > 100 µM | TGI (MALME-3M melanoma): > 100 µM | TGI (HCC-2998 colon): > 100 µM | TGI (T-47D breast): > 100 µM | TGI (NCI-H460 lung): > 100 µM | TGI (SNB-75 CNS): > 100 µM | TGI (OVCAR-8 ovarian): > 100 µM | TGI (RXF 393 renal): > 100 µM | TGI (HCT-116 colon): > 100 µM | TGI (OVCAR-3 ovarian): > 100 µM

OCC(CCc1ccccc1I)C1=CCC2(CC1)OCCO2 (stereo unspecified)
TGI (NCI-H522 lung): 30.3 µM | TGI (MALME-3M melanoma): 33.6 µM | TGI (HCC-2998 colon): 43.4 µM | TGI (T-47D breast): 42.3 µM | TGI (NCI-H460 lung): 57.7 µM | TGI (SNB-75 CNS): 52 µM | TGI (OVCAR-8 ovarian): 43.1 µM | TGI (RXF 393 renal): 34.9 µM | TGI (OVCAR-3 ovarian): 41.3 µM

Oc1ccccc1C1C=C(c2ccccc2)NC(N2CCCCC2)=C1c1nc2ccccc2[nH]1 (stereo unspecified)
TGI (NCI-H522 lung): 27.7 µM | TGI (MALME-3M melanoma): 29.6 µM | TGI (HCC-2998 colon): 10.8 µM | TGI (T-47D breast): 40.4 µM | TGI (NCI-H460 lung): 28 µM | TGI (SNB-75 CNS): 18.3 µM | TGI (OVCAR-8 ovarian): 30.9 µM | TGI (RXF 393 renal): 24.7 µM | TGI (HCT-116 colon): 24.6 µM | TGI (OVCAR-3 ovarian): 29.8 µM

CC12CCCCC1=[N+]([O-])C(C)(C)N2O (stereo unspecified)
TGI (MALME-3M melanoma): > 100 µM | TGI (HCC-2998 colon): > 100 µM | TGI (T-47D breast): > 100 µM | TGI (NCI-H460 lung): > 100 µM | TGI (OVCAR-8 ovarian): > 100 µM | TGI (RXF 393 renal): > 100 µM | TGI (HCT-116 colon): > 100 µM | TGI (OVCAR-3 ovarian): > 100 µM

COc1ccccc1N=Nc1c(O)c(S(=O)(=O)O)cc2cc(S(=O)(=O)O)ccc12
TGI (NCI-H522 lung): > 100 µM | TGI (MALME-3M melanoma): > 100 µM | TGI (T-47D breast): > 100 µM | TGI (SNB-75 CNS): > 100 µM | TGI (OVCAR-8 ovarian): > 100 µM | TGI (RXF 393 renal): > 100 µM | TGI (HCT-116 colon): > 100 µM | TGI (OVCAR-3 ovarian): > 100 µM

CC1(C)CC2(C)CC1CC2(O)c1ccccc1 (stereo unspecified)
TGI (NCI-H522 lung): > 100 µM | TGI (MALME-3M melanoma): > 100 µM | TGI (T-47D breast): > 100 µM | TGI (NCI-H460 lung): > 100 µM | TGI (SNB-75 CNS): > 100 µM | TGI (OVCAR-8 ovarian): > 100 µM | TGI (RXF 393 renal): > 100 µM | TGI (HCT-116 colon): > 100 µM | TGI (OVCAR-3 ovarian): > 100 µM

NC(Cc1c[nH]c2cc([N+](=O)[O-])ccc12)C(=O)O (stereo unspecified)
TGI (NCI-H522 lung): > 100 µM | TGI (MALME-3M melanoma): > 100 µM | TGI (T-47D breast): > 100 µM | TGI (NCI-H460 lung): > 100 µM | TGI (SNB-75 CNS): > 100 µM | TGI (OVCAR-8 ovarian): > 100 µM | TGI (RXF 393 renal): > 100 µM | TGI (HCT-116 colon): > 100 µM | TGI (OVCAR-3 ovarian): > 100 µM

O=C1C=C2CCC[C@H]3OC(=O)C[C@@]23CC1
TGI (NCI-H522 lung): > 100 µM | TGI (MALME-3M melanoma): > 100 µM | TGI (HCC-2998 colon): > 100 µM | TGI (T-47D breast): > 100 µM | TGI (NCI-H460 lung): > 100 µM | TGI (RXF 393 renal): > 100 µM | TGI (HCT-116 colon): > 100 µM | TGI (OVCAR-3 ovarian): > 100 µM

CC(=O)OC1C2CCC3C(C)(O)C4CC(O)C(C)(C)C4(O)C(O)CC13CC2(C)O (stereo unspecified)
TGI (NCI-H522 lung): > 100 µM | TGI (HCC-2998 colon): > 100 µM | TGI (T-47D breast): > 100 µM | TGI (SNB-75 CNS): > 100 µM | TGI (OVCAR-8 ovarian): > 100 µM | TGI (HCT-116 colon): > 100 µM | TGI (OVCAR-3 ovarian): > 100 µM

COC(=O)c1c(CC(Cc2ccc3c(c2)CCCC3)C(=O)OC)ccc2c1CCCC2 (stereo unspecified)
TGI (NCI-H522 lung): > 100 µM | TGI (MALME-3M melanoma): > 100 µM | TGI (HCC-2998 colon): > 100 µM | TGI (T-47D breast): > 100 µM | TGI (NCI-H460 lung): > 100 µM | TGI (OVCAR-8 ovarian): > 100 µM | TGI (RXF 393 renal): > 100 µM | TGI (HCT-116 colon): > 100 µM | TGI (OVCAR-3 ovarian): > 100 µM

N#C/C(=C\c1ccc([N+](=O)[O-])s1)c1nc2cc(Cl)ccc2s1
GI50 (NCI-H522 lung): 1.18 µM | TGI (NCI-H522 lung): 3.56 µM | GI50 (MALME-3M melanoma): 0.202 µM | TGI (MALME-3M melanoma): 0.541 µM | GI50 (HCC-2998 colon): 2.31 µM | TGI (HCC-2998 colon): 6.8 µM | GI50 (T-47D breast): 1.88 µM | TGI (T-47D breast): 4.97 µM | GI50 (OVCAR-8 ovarian): 0.555 µM | TGI (OVCAR-8 ovarian): 69.2 µM | GI50 (HCT-116 colon): 0.329 µM | TGI (HCT-116 colon): 1.27 µM | GI50 (OVCAR-3 ovarian): 1.42 µM | TGI (OVCAR-3 ovarian): 3.23 µM

CN1CN(c2ccccc2)C2(CCN(CCCCCCF)CC2)C1=O
TGI (NCI-H522 lung): > 100 µM | TGI (MALME-3M melanoma): > 100 µM | TGI (T-47D breast): > 100 µM | TGI (SNB-75 CNS): > 100 µM | TGI (OVCAR-8 ovarian): > 100 µM | TGI (RXF 393 renal): > 100 µM | TGI (HCT-116 colon): > 100 µM | TGI (OVCAR-3 ovarian): > 100 µM

Cn1c([C@H](C#N)C(=O)c2cc(O)ccc2[N+](=O)[O-])nc2ccccc21
TGI (NCI-H522 lung): > 100 µM | TGI (MALME-3M melanoma): > 100 µM | TGI (HCC-2998 colon): > 100 µM | TGI (T-47D breast): > 100 µM | TGI (NCI-H460 lung): > 100 µM | TGI (SNB-75 CNS): > 100 µM | TGI (OVCAR-8 ovarian): > 100 µM | TGI (HCT-116 colon): > 100 µM | TGI (OVCAR-3 ovarian): > 100 µM

Cc1ccc(S(=O)(=O)NC(=O)NC(CCCCN=C(N)N)C(=O)O)cc1 (stereo unspecified)
TGI (NCI-H522 lung): > 100 µM | TGI (MALME-3M melanoma): > 100 µM | TGI (T-47D breast): > 100 µM | TGI (NCI-H460 lung): > 100 µM | TGI (SNB-75 CNS): > 100 µM | TGI (OVCAR-8 ovarian): > 100 µM | TGI (RXF 393 renal): > 100 µM | TGI (HCT-116 colon): > 100 µM

CC(=O)OC12c3ccccc3C(c3ccccc31)C1C(=O)N(c3ccccn3)C(=O)C12 (stereo unspecified)
TGI (MALME-3M melanoma): > 100 µM | TGI (HCC-2998 colon): > 100 µM | TGI (T-47D breast): > 100 µM | TGI (SNB-75 CNS): > 100 µM | TGI (OVCAR-8 ovarian): > 100 µM | TGI (RXF 393 renal): > 100 µM | TGI (HCT-116 colon): > 100 µM | TGI (OVCAR-3 ovarian): > 100 µM

CS[C@]12[C@@H]3C(=O)N(C)C(=O)[C@@H]3[C@](C)(C(=O)N1C)C(=O)N2c1ccccc1
TGI (NCI-H522 lung): > 100 µM | TGI (MALME-3M melanoma): > 100 µM | TGI (HCC-2998 colon): > 100 µM | TGI (T-47D breast): > 100 µM | TGI (SNB-75 CNS): > 100 µM | TGI (OVCAR-8 ovarian): > 100 µM | TGI (RXF 393 renal): > 100 µM | TGI (HCT-116 colon): > 100 µM | TGI (OVCAR-3 ovarian): > 100 µM

CCCCCCCCCC(=O)N[C@@H](c1ccco1)[C@@H](O)C(=O)O[C@H]1C[C@@]2(O)[C@@H](OC(=O)c3ccccc3)[C@@H]3[C@]4(OC(C)=O)CO[C@@H]4C[C@H](O)[C@@]3(C)C(=O)[C@H](OC(C)=O)C(=C1C)C2(C)C
TGI (NCI-H522 lung): 0.631 µM | TGI (MALME-3M melanoma): 12.4 µM | TGI (HCC-2998 colon): 0.736 µM | TGI (T-47D breast): 1.42 µM | TGI (NCI-H460 lung): 8.9 µM | TGI (OVCAR-8 ovarian): 11 µM | TGI (RXF 393 renal): 0.898 µM | TGI (HCT-116 colon): 1.13 µM | TGI (OVCAR-3 ovarian): 3.48 µM
